Results from ChEMBL document CHEMBL1158261, “Cercophorins A-C: novel antifungal and cytotoxic metabolites from the coprophilous fungus Cercophora areolata” (1996).

Columns and labels:
Format in all cases: functional
[1] = test system: Bacillus subtilis; experiment: […] activity against Bacillus subtilis ATCC 6051 at 200 ug/disk by standard disk assay; settings: read-out: IZ
[2] = test system: Staphylococcus aureus; experiment: […] activity against Staphylococcus aureus ATCC 29213 at 200 ug/disk by standard disk assay; settings: read-out: IZ
[3] = test system: Sordaria fimicola; experiment: Antifungal activity against Sordaria fimicola NRRL 6459 assessed as reduction in radical growth at 200 ug/disk by centerpoint inoculation disk assay; design: scale not given: the % may be the effect or the level left
[4] = test system: Ascobolus; experiment: Antifungal activity against Ascobolus furfuraceus NRRL 6460 assessed as reduction in radical growth at 200 ug/disk by centerpoint inoculation disk assay; design: scale not given: the % may be the effect or the level left

Row | Structure (SMILES) | zone of inhibition at 200 µg/disc [1] [mm] | zone of inhibition at 200 µg/disc [2] [mm] | Activity [3] [%] | Activity [4] [%]
1 | COC(=O)c1cc(OC)cc(O)c1C(=O)c1c(O)cc2cc(C)oc(=O)c2c1O [CERCOPHORIN A] | 26 | 16 | 34 | –
2 | COC(=O)c1cc(OC)cc(OC(=O)c2c(O)cc3cc(C)oc(=O)c3c2O)c1O [CERCOPHORIN B] | – | – | 10 | –
3 | COC(=O)c1cc(OC)cc(O)c1OC(=O)c1c(O)cc2cc(C)oc(=O)c2c1O [CERCOPHORIN C] | – | – | 51 | –
4 | Cc1oc(=O)c2c(O)cc(O)c(C)c2c1C [DECARBOXYCITRINONE] | – | – | 100 | 100
